The test addresses Epidermal growth factor receptor (Homo sapiens) (UniProt P00533). Briefly: altered EGFR protein amount in cells – DLD1 cells, chemiluminescent western blot, counter-screen for KLF5 inhibitor project, late-stage follow-up (AID 588610). To be noted: DLD-1 cells, 24 h, at 10 µM; for fold change: measured here: EGFR band fold change vs DMSO; for inhibition of EGFR protein level: stronger effect = higher value. Background: A western blot detects proteins with antibodies after separation by electrophoresis.

Each structure is given as a SMILES string.

For `CN(C(=O)CNC(=O)/C=C/c1cccc(Cl)c1)C1CCS(=O)(=O)C1` (stereo not given), the fold change worked out at 5.24.
For the molecule `CN(C(=O)CNC(=O)/C=C/c1cccc(Cl)c1)C1CCS(=O)(=O)CC1`, the inhibition of EGFR protein level was -478% and the fold change was found to be 5.13.
The like results for `CN(C(=O)COC(=O)/C=C/c1cccc([N+](=O)[O-])c1)C1CCS(=O)(=O)C1` (stereo not given) were, in that order, -314% and 3.54.

For the origin of these results see PubChem BioAssay AID588610 (The Scripps Research Institute Molecular Screening Center, 2011).
